Experimental data reported in PubChem BioAssay (NCI).
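Briefly, cells in 96-well plates were exposed to five compound concentrations for 48 h, and endpoints were estimated by linear interpolation. Abbreviation: GI50, concentration required for 50% inhibition of growth. At the TGI there is no net growth.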

Tests used:
Assay in all cases: NCI tumour cell line growth inhibition, 48 h
[1] = tested on: MALME-3M melanoma
[2] = tested on: SF-539 CNS
[3] = tested on: MDA-MB-435
[4] = tested on: DU-145 prostate
[5] = tested on: HT29 colon
[6] = tested on: SK-MEL-28 melanoma
[7] = tested on: M14 melanoma
[8] = tested on: SK-MEL-2 melanoma

SMILES | GI50 [1] [µM] | TGI [1] [µM] | GI50 [2] [µM] | TGI [2] [µM] | GI50 [3] [µM] | TGI [3] [µM] | GI50 [4] [µM] | TGI [4] [µM] | GI50 [5] [µM] | TGI [5] [µM] | GI50 [6] [µM] | TGI [6] [µM] | GI50 [7] [µM] | TGI [7] [µM] | GI50 [8] [µM] | TGI [8] [µM]
C=C(C)C(=O)Nc1ccc(NC(C)C)cc1 | > 100 | > 100 | > 100 | > 100 | > 100 | > 100 | > 100 | > 100 | > 100 | > 100 | > 100 | > 100 | > 100 | > 100 | > 100 | > 100
Cc1ccc(Nc2n[nH]c(=S)s2)cc1C | – | > 100 | – | > 100 | – | > 100 | – | > 100 | – | > 100 | – | > 100 | – | > 100 | – | > 100
C=C1C(=O)O[C@H]2[C@H]1CC/C(COC(=O)NCc1cn(C)c3ccccc13)=C\CC[C@@]1(C)O[C@@H]21 | 1.92 | 3.64 | 1.37 | 2.7 | 1.28 | 3.05 | 1.26 | 2.55 | 1.22 | 3 | 1.43 | 3.01 | 1.45 | 2.92 | 2.55 | 7.79
C=C1CCC2C3(C)COC(c4ccc(N(C)C)cc4)OC3CCC2(C)C1C/C=C1/C(=O)OCC1O (centres undefined) | 7.83 | 22.2 | 8.07 | 20.5 | 2.88 | 10.5 | 3.01 | 10.4 | 2.43 | 6.19 | 2.34 | 5.4 | 4.1 | 16.7 | 5.15 | 13.7
CC/C=C1/C(=O)C=C[C@@H]1C/C=C\CCCC(=O)OC | 2.92 | 9.06 | 3.66 | 13.7 | 1.86 | 4.6 | 4.56 | 16.4 | 2.25 | 5.3 | 2.52 | 6.27 | 2.8 | 10.8 | 2.24 | 6.94
COc1ccc(-c2cn(-c3cc(OC)c(OC)c(OC)c3)c(SCc3ccccc3)n2)cc1OC | > 100 | > 100 | > 100 | > 100 | > 100 | > 100 | > 100 | > 100 | > 100 | > 100 | > 100 | > 100 | > 100 | > 100 | > 100 | > 100
COC(=O)C1(C)CCC(c2ccc(C)cc2)=C(CC(=O)O)C1 (centres undefined) | – | > 100 | – | > 100 | – | > 100 | – | > 100 | – | > 100 | – | > 100 | – | > 100 | – | > 100
COc1ccc(-c2c[nH]c(C(=O)O)c2-c2cc(OC)c(OC)c(OC)c2)cc1 | 4.37 | > 100 | 3.08 | 15.6 | 1.6 | 4.19 | 4.27 | > 100 | 3.29 | > 100 | > 100 | > 100 | 3.65 | > 100 | 5.45 | > 100
C=C(C)C(=O)O[C@H]1CC(=C)[C@@H]2C[C@H](O)[C@](O)(CCl)[C@@H]2[C@H]2OC(=O)C(=C)[C@@H]21 | 1.86 | 3.6 | 1.98 | 4.35 | 1.99 | 3.77 | 2.16 | 6.33 | 2.89 | 7.42 | 2.02 | 3.9 | 2.78 | 6.88 | 6.59 | 22
FC(F)(F)c1ccc(Nc2nc(-c3c(C(F)(F)F)nc4ccccn34)cs2)cc1 | 0.064 | 4.63 | 0.0383 | 0.276 | 0.0161 | 0.0473 | 0.0402 | 2.15 | 0.0364 | 1.99 | 1.05 | 16.9 | 0.043 | 1.22 | 0.0734 | 6.76
Nc1c(C(=O)c2cccc(-c3ccncc3)c2)cnn1-c1ccc(F)cc1F | 3.98 | > 16.2 | > 16.4 | > 25 | 0.684 | 3.56 | > 22.1 | > 25 | 2.48 | > 25 | 16.7 | > 25 | 6.58 | > 25 | 6.43 | > 19.7
O=C1c2ccccc2C(O)(O)C1(O)C1(O)C(=O)c2ccccc2C1(O)O (centres undefined) | – | 54.3 | – | > 100 | – | 32.8 | – | > 100 | – | > 100 | – | > 100 | – | > 100 | – | > 100
C[C@H]1[C@H](C)CC[C@]2(CO)CC[C@]3(C)C(=CC[C@@H]4[C@@]5(C)CCCNC(C)(C)[C@@H]5CC[C@]43C)[C@H]12 | 1.68 | 3.44 | 1.69 | 3.16 | 1.59 | 3.21 | 1.72 | 3.14 | 0.628 | 1.97 | 1.75 | 3.3 | 1.61 | 3.12 | 1.9 | 3.63
Cc1ccc(S(=O)(=O)N/N=C/c2c(O)ccc3ccccc23)cc1 | – | 77.4 | – | 41.8 | – | 55.3 | – | > 100 | – | > 100 | – | > 100 | – | 64.9 | – | 49.1
C(#Cc1ccccc1C#Cc1cccs1)c1cccs1 | 56.9 | > 100 | 71.5 | > 100 | 37.2 | > 100 | > 100 | > 100 | 23.5 | > 100 | > 100 | > 100 | 32.9 | > 100 | 41.7 | > 100
CN[C@@H](C)C(=O)N[C@H](C(=O)N1CCC[C@H]1C(=O)Nc1snnc1-c1ccccc1)C1CCCCC1 | 11.5 | 26.2 | 1.08 | > 38.6 | 32.1 | > 100 | 65.4 | > 100 | 31.7 | > 67.3 | 23 | 61.6 | 24.6 | 55.8 | 27.4 | > 63.9
